US9056851B2, “Thiolactone antibiotics” (priority 2011, dated 2015)
≈ marks a conversion by molar mass, not a printed value.

Experiments:
[1] = system: M. tuberculosis H37Rv; experiment: MIC against M. tuberculosis; type: cell-based; conditions: Mycobacterium tuberculosis; MIC99; H37Rv; read-out: MIC (μg/ml) M. tb (MIC99)
[2] = system: Y. pestis A1122; experiment: microbe, parasite or virus in culture; type: cell-based; conditions: Yersinia pestis, A1122, read-out: MIC (μg/ml) Y. pestis
[3] = system: S. aureus BAA1762; experiment: MIC against S. aureus BAA1762 (MRSA); type: cell-based; conditions: Staphylococcus aureus; MIC90; read-out: MIC (μg/ml) Staph. aureus BAA1762 MRSA
[4] = system: B. thialandensis Bt38; experiment: MIC against B. thialandensis; type: cell-based; conditions: read-out: MIC (μg/ml) B. thialandensis Bt.38 (efflux^−)
[5] = system: S. aureus RN4220; experiment: MIC against S. aureus RN4220 (MSSA); type: cell-based; conditions: Staphylococcus aureus, MIC90, read-out: MIC (μg/ml) Staph. aureus RN4220 MSSA
[6] = system: F. tularensis LVS; experiment: microbe, parasite or virus in culture; type: cell-based; conditions: Francisella tularensis, read-out: MIC (μg/ml) F. tu
[7] = biological target: wild-type apo-KasA (Mycobacterium tuberculosis, UniProt P9WQD9); experiment: biochemical; type: binding
Chain of wild-type apo-KasA (P9WQD9 whole entry): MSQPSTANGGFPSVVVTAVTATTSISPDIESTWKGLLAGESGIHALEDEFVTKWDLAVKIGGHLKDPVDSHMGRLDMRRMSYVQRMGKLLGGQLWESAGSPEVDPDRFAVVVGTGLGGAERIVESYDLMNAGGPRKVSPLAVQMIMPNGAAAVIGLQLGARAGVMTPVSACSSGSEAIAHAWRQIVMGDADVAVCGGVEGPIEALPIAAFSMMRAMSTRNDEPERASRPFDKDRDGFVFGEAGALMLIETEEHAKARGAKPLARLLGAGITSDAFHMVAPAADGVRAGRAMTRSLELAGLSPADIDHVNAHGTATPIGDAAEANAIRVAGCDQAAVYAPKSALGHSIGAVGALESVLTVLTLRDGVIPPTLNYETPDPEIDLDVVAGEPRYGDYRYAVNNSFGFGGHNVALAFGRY

[8] = system: B. pseudomallei Bp82z66; experiment: microbe, parasite or virus in culture; type: cell-based; conditions: Burkholderia pseudomallei, BP82Z66, read-out: MIC (μg/ml) B. pseudomallei
[9] = system: M. smegmatis MC^2155; experiment: MIC against M. smegmatis; type: cell-based; conditions: Mycolicibacterium smegmatis, MC^2155; MIC90; read-out: MIC (μg/ml) M. smeg

Row | SMILES | MIC99 [1] | MIC [2] | MIC [3] | MIC [4] | MIC [5] | MIC [6] | Ki [7] | Kd ([7]; Kd (μM) apo-KasA, Table 1, wild-type apo-KasA, fluorescence spectroscopy) | MIC [8] | MIC [9]
1 | C=C/C(C)=C/[C@@]1(C)SC(=O)C(CCCCn2cc(CNC(=O)c3ccc(NS(=O)(=O)c4ccc(F)cc4)cc3)nn2)=C1O [TLM34] | 12.5 µg/mL (≈ 20 µM) | 250 µg/mL (≈ 400 µM) | > 100 µg/mL | 250 µg/mL (≈ 400 µM) | > 64 µg/mL | 250 µg/mL (≈ 400 µM) | – | – | – | –
2 | C=C/C(C)=C/[C@@]1(C)SC(=O)C(CCCN=[N+]=[N-])=C1O [TLM10] | 12.5 µg/mL (≈ 44.7 µM) | 250 µg/mL (≈ 895 µM) | > 100 µg/mL | 250 µg/mL (≈ 895 µM) | > 64 µg/mL | 23.5 µg/mL (≈ 84.1 µM) | 233 ± 7 µM | 233 ± 7 µM | – | –
3 | C=C/C(C)=C/[C@@]1(C)SC(=O)C(C(C)=O)=C1O [TLM35] | 12.5 µg/mL (≈ 52.5 µM) | – | 32 µg/mL (≈ 134 µM) | – | 64 µg/mL (≈ 269 µM) | 8.78 µg/mL (≈ 36.8 µM) | – | – | 155 µg/mL (≈ 649 µM) | –
4 | C=C/C(C)=C/[C@@]1(C)SC(=O)C(CCCCc2ccc(Cl)cc2)=C1O [TLM7] | 25 µg/mL (≈ 68.9 µM) | 250 µg/mL (≈ 689 µM) | 50 µg/mL (≈ 138 µM) | 81 µg/mL (≈ 223 µM) | 64 µg/mL (≈ 176 µM) | 1.73 µg/mL (≈ 4.77 µM) | – | – | – | > 100 µg/mL
5 | C=C/C(C)=C/[C@@]1(C)SC(=O)C(C(=O)c2ccccc2C(=O)O)=C1O [TLM39] | > 100 µg/mL | – | 32 µg/mL (≈ 92.9 µM) | – | 32 µg/mL (≈ 92.9 µM) | 16 µg/mL (≈ 46.4 µM) | – | – | 155 µg/mL (≈ 449 µM) | –
6 | C=C/C(C)=C/[C@@]1(C)SC(=O)C(C(=O)CCC)=C1O [TLM38] | 12.5 µg/mL (≈ 46.9 µM) | – | 32 µg/mL (≈ 120 µM) | – | 16 µg/mL (≈ 60.1 µM) | 1.82 µg/mL (≈ 6.83 µM) | – | – | 171 µg/mL (≈ 644 µM) | –
7 | C=C/C(C)=C/[C@@]1(C)SC(=O)C(C(=O)CCCCN=[N+]=[N-])=C1O [TLM44] | – | – | 16 µg/mL (≈ 49.8 µM) | – | 16 µg/mL (≈ 49.8 µM) | – | – | – | – | –
8 | C=C/C(C)=C/[C@@]1(C)SC(=O)C=C1O [TLM2, 5R-(+)-3-Demethylthiolactomycin] | > 100 µg/mL | 250 µg/mL (≈ 1270 µM) | 100 µg/mL (≈ 509 µM) | 148 µg/mL (≈ 756 µM) | 150 µg/mL (≈ 764 µM) | 124 µg/mL (≈ 631 µM) | – | – | – | > 100 µg/mL
9 | C=C/C(C)=C/[C@@]1(C)SC(=O)C(C(=O)C(F)(F)F)=C1O [TLM36] | > 100 µg/mL | – | 64 µg/mL (≈ 219 µM) | – | > 64 µg/mL | 98.1 µg/mL (≈ 336 µM) | – | – | 160 µg/mL (≈ 547 µM) | –
10 | C=C/C(C)=C/[C@@]1(C)SC(=O)C=C1OCC(=O)NCCn1cc(CNC(=O)c2ccc(NS(=O)(=O)c3ccc(F)cc3)cc2)nn1 [TLM42] | 100 µg/mL (≈ 153 µM) | – | > 64 µg/mL | – | > 64 µg/mL | > 256 µg/mL | – | – | 178 µg/mL (≈ 272 µM) | –
11 | C=C/C(C)=C/[C@@]1(C)SC(=O)C(CCC)=C1O [TLM4, 5R-(+)-3-Propylthiolactomycin] | 12.5 µg/mL (≈ 52.4 µM) | 250 µg/mL (≈ 1050 µM) | > 200 µg/mL | 250 µg/mL (≈ 1050 µM) | > 200 µg/mL | 25.8 µg/mL (≈ 108 µM) | – | – | – | > 100 µg/mL
12 | C=C/C(C)=C/[C@@]1(C)SC(=O)C=C1OCC(=O)NCCN=[N+]=[N-] [TLM40] | > 100 µg/mL | – | > 64 µg/mL | – | > 64 µg/mL | 39.1 µg/mL (≈ 121 µM) | – | – | > 256 µg/mL | –
13 | C=C/C(C)=C/[C@@]1(C)SC(=O)C(CCCCc2ccc(F)cc2)=C1O [TLM6] | 25 µg/mL (≈ 72.2 µM) | 250 µg/mL (≈ 722 µM) | 75 µg/mL (≈ 216 µM) | 250 µg/mL (≈ 722 µM) | > 64 µg/mL | 3.15 µg/mL (≈ 9.1 µM) | – | – | – | > 100 µg/mL
14 | C=C/C(C)=C/[C@@]1(C)SC(=O)C(C(=O)CCCCc2ccc(-c3ccccc3)cc2)=C1O [TLM45] | 50 µg/mL (≈ 116 µM) | – | 2 µg/mL (≈ 4.62 µM) | – | 0.5 µg/mL (≈ 1.16 µM) | 0.21 µg/mL (≈ 0.485 µM) | – | – | 4.58 µg/mL (≈ 10.6 µM) | –
15 | C=C/C(C)=C/[C@@]1(C)SC(=O)C(CCc2ccc(C)cc2)=C1O [TLM5] | 25 µg/mL (≈ 79.5 µM) | 250 µg/mL (≈ 795 µM) | > 100 µg/mL | 250 µg/mL (≈ 795 µM) | > 64 µg/mL | 3.45 µg/mL (≈ 11 µM) | – | – | – | > 100 µg/mL
16 | C=C/C(C)=C/[C@@]1(C)SC(=O)C(CCCCN=[N+]=[N-])=C1O [TLM32] | 50 µg/mL (≈ 170 µM) | 250 µg/mL (≈ 852 µM) | > 100 µg/mL | 250 µg/mL (≈ 852 µM) | > 64 µg/mL | 15.3 µg/mL (≈ 52.3 µM) | – | – | – | –
17 | C=C/C(C)=C/[C@@]1(C)SC(=O)C(C(=O)OC)=C1O [TLM37] | 100 µg/mL (≈ 393 µM) | – | > 64 µg/mL | – | > 64 µg/mL | 58.2 µg/mL (≈ 229 µM) | – | – | 160 µg/mL (≈ 631 µM) | –
18 | C=C/C(C)=C/[C@@]1(C)SC(=O)C(C(=O)CCCCCCCCCCCCCCC)=C1O [TLM43] | > 100 µg/mL | – | 1 µg/mL (≈ 2.3 µM) | – | 0.5 µg/mL (≈ 1.15 µM) | – | – | – | 1.36 µg/mL (≈ 3.13 µM) | –
19 | C=C/C(C)=C/[C@@]1(C)SC(=O)C(CCCCn2cc(CNC(=O)[C@H](O)C(C)(C)CO)nn2)=C1O [TLM33] | > 100 µg/mL | 250 µg/mL (≈ 522 µM) | > 100 µg/mL | 250 µg/mL (≈ 522 µM) | > 64 µg/mL | 250 µg/mL (≈ 522 µM) | – | – | – | –
20 | C=C/C(C)=C/[C@@]1(C)SC(=O)C(CCc2ccc(Cl)cc2)=C1O [TLM31] | 25 µg/mL (≈ 74.7 µM) | 250 µg/mL (≈ 747 µM) | 100 µg/mL (≈ 299 µM) | 250 µg/mL (≈ 747 µM) | 64 µg/mL (≈ 191 µM) | 3.1 µg/mL (≈ 9.24 µM) | – | – | – | –
21 | C=C/C(C)=C/[C@@]1(C)SC(=O)C(CCCCc2ccc(Br)cc2)=C1O [TLM8] | 25 µg/mL (≈ 61.4 µM) | 250 µg/mL (≈ 614 µM) | 50 µg/mL (≈ 123 µM) | 126 µg/mL (≈ 309 µM) | 32 µg/mL (≈ 78.6 µM) | 2.17 µg/mL (≈ 5.33 µM) | – | – | – | > 100 µg/mL
22 | C=C/C(C)=C/[C@@]1(C)SC(=O)C(CCCCc2ccc(-c3ccccc3)cc2)=C1O [TLM9] | 50 µg/mL (≈ 124 µM) | 250 µg/mL (≈ 618 µM) | 25 µg/mL (≈ 61.8 µM) | 145 µg/mL (≈ 359 µM) | 16 µg/mL (≈ 39.5 µM) | 1.97 µg/mL (≈ 4.88 µM) | – | – | – | –
23 | C=C/C(C)=C/[C@@]1(C)SC(=O)C=C1OCC(=O)NCCNC(=O)OC(C)(C)C [TLM41] | > 100 µg/mL | – | > 64 µg/mL | – | > 64 µg/mL | 54.5 µg/mL (≈ 137 µM) | – | – | > 256 µg/mL | –
24 | C=C/C(C)=C/[C@@]1(C)SC(=O)C=C1OCC(=O)NCCn1cc(CNC(=O)[C@H](O)C(C)(C)CO)nn1 [TLM26] | > 100 µg/mL | – | > 64 µg/mL | – | > 64 µg/mL | 159 µg/mL (≈ 313 µM) | – | – | 150 µg/mL (≈ 295 µM) | –
25 | C=C/C(C)=C/[C@@]1(C)SC(=O)C(CC)=C1O [TLM3, 5R-(+)-3-Ethylthiolactomycin] | < 7.8 µg/mL | 145 µg/mL (≈ 645 µM) | 125 µg/mL (≈ 557 µM) | 148 µg/mL (≈ 661 µM) | 150 µg/mL (≈ 669 µM) | 6.9 µg/mL (≈ 30.8 µM) | – | – | – | > 100 µg/mL
